Patent US8168651B2, “Protein kinase modulators” (Cylene Pharmaceuticals, Inc., priority 2008, dated 2012)

Columns and labels:
Assay in all cases: Standardized radiometric kinase assays, percentage of activity at 0.5 μM;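 also: Read-out is ³³P-labelled substrate protein phosphorylated by each kinase, captured on filters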
[1] = molecular target: each individual kinase of the panel (Homo sapiens, UniProt Q8IW41)
[2] = molecular target: each individual kinase of the panel (Homo sapiens, UniProt Q96SB4)
[3] = molecular target: each individual kinase of the panel (Homo sapiens, UniProt P41240)
Chain of each individual kinase of the panel (Homo sapiens, UniProt P41240) (P41240 2-450 limits assumed): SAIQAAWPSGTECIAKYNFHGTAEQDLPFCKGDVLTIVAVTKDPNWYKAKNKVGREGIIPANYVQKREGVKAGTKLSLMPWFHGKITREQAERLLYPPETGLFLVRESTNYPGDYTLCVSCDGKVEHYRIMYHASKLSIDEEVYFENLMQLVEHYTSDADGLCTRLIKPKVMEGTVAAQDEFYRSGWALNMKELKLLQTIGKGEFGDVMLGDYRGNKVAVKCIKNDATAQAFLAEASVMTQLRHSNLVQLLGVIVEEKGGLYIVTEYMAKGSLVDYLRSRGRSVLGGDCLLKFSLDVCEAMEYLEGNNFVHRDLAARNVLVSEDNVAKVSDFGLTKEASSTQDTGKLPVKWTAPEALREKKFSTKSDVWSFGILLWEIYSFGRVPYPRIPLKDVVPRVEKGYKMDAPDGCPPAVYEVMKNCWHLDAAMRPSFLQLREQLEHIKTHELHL

[4] = molecular target: each individual kinase of the panel (Homo sapiens, UniProt P17948)
[5] = molecular target: each individual kinase of the panel (Homo sapiens, UniProt Q14680)
[6] = molecular target: each individual kinase of the panel (Homo sapiens, UniProt P80192)
[7] = molecular target: each individual kinase of the panel (Homo sapiens, UniProt P78368)
[8] = molecular target: each individual kinase of the panel (Homo sapiens, UniProt Q9H4B4)
[9] = molecular target: each individual kinase of the panel (Homo sapiens, UniProt P17252)
[10] = molecular target: each individual kinase of the panel (Homo sapiens, UniProt P24941)
[11] = molecular target: each individual kinase of the panel (Homo sapiens, UniProt P35916)
[12] = molecular target: each individual kinase of the panel (Homo sapiens, UniProt P10721, V560G)
Chain of each individual kinase of the panel (Homo sapiens, UniProt P10721, V560G) (P10721 26-976 V560G limits assumed): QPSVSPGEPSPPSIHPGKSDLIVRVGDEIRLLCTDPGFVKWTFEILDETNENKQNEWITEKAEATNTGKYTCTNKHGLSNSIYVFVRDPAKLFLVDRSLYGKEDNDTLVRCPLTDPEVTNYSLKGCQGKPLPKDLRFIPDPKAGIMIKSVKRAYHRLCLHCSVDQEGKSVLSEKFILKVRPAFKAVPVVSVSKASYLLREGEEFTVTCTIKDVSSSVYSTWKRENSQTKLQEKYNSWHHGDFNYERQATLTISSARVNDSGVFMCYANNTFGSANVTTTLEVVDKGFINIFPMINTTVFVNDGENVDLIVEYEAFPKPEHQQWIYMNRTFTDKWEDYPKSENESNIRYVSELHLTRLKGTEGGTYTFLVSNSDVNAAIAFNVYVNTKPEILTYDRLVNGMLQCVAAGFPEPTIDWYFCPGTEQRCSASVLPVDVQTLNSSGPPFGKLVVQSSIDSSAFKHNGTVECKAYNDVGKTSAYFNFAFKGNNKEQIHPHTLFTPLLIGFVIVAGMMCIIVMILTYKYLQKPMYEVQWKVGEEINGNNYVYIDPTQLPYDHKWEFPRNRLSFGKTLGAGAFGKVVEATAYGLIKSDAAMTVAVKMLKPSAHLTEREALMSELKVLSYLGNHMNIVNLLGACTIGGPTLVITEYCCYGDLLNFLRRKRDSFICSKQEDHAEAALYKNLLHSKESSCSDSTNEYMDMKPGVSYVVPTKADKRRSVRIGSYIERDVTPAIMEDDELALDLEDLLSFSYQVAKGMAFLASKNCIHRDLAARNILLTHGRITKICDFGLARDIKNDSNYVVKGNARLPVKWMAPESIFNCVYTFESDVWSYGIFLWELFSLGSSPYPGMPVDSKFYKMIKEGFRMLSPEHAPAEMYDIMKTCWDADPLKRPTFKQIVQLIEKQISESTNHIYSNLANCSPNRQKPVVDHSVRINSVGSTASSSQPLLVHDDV

[13] = molecular target: each individual kinase of the panel (Homo sapiens, UniProt Q9Y6M4)
[14] = molecular target: each individual kinase of the panel (Homo sapiens, UniProt P07949)
Chain of each individual kinase of the panel (Homo sapiens, UniProt P07949) (P07949 29-1114 limits assumed): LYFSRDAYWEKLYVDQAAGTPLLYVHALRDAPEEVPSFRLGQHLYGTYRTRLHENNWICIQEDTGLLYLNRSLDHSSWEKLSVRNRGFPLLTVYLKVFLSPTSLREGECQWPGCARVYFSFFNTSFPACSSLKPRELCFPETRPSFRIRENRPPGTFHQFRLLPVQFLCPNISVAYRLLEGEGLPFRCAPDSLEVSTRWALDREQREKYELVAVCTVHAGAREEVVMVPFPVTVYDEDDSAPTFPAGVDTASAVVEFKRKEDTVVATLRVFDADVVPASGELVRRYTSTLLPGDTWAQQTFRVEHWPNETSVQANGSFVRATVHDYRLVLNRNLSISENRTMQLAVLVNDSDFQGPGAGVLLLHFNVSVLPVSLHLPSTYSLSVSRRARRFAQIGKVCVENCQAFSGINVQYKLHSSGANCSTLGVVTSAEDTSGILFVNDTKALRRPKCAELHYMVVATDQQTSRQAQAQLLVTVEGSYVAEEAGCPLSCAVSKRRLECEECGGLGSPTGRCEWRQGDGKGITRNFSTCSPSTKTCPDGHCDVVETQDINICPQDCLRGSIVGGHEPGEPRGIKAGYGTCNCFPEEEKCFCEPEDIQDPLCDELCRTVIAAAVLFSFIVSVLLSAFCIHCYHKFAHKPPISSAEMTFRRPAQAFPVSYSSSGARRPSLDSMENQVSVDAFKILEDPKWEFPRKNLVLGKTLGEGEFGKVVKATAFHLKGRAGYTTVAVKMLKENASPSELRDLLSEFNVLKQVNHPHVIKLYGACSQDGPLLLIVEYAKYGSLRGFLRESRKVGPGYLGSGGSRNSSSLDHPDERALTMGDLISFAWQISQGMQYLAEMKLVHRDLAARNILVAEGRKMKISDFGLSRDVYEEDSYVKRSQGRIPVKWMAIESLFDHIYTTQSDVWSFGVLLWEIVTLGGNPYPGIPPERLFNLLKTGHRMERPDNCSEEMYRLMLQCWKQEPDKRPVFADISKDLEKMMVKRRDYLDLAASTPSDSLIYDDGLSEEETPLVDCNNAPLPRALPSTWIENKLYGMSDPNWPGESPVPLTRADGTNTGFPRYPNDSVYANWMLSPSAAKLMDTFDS

[15] = molecular target: each individual kinase of the panel (Homo sapiens, UniProt Q05397)
Chain of each individual kinase of the panel (Homo sapiens, UniProt Q05397) (Q05397 2-1052 limits assumed): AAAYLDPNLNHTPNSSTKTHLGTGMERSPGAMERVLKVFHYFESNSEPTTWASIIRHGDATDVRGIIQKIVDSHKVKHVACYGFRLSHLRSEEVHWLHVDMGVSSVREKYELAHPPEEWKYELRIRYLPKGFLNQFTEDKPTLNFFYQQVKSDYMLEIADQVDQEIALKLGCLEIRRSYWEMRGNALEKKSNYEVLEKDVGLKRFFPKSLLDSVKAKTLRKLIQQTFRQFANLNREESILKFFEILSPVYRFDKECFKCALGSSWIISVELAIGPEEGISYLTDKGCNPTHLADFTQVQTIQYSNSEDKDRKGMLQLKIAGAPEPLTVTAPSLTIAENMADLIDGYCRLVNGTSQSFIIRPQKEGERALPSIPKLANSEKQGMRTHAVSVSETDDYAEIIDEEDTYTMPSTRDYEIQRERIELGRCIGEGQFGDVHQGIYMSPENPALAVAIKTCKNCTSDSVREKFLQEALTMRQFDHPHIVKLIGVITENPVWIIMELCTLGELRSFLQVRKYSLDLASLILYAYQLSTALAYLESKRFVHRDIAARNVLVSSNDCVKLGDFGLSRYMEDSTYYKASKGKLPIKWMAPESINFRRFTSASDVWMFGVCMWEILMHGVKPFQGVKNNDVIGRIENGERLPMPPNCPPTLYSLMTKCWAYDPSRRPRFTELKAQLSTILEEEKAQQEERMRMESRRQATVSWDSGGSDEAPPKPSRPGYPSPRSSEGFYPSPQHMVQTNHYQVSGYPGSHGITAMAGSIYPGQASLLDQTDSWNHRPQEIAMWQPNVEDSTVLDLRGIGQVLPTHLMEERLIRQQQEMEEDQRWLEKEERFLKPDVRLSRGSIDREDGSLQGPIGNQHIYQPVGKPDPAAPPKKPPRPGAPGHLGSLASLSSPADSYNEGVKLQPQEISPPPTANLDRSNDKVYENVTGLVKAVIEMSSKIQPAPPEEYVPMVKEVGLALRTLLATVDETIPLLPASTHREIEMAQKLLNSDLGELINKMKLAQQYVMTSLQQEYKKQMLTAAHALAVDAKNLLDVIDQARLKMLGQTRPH

[16] = molecular target: each individual kinase of the panel (Homo sapiens, UniProt O60285)
[17] = molecular target: each individual kinase of the panel (Homo sapiens, UniProt Q15349)
[18] = molecular target: each individual kinase of the panel (Homo sapiens, UniProt Q14012)
[19] = molecular target: each individual kinase of the panel (Homo sapiens, UniProt O43318)
[20] = molecular target: each individual kinase of the panel (Homo sapiens, UniProt P49137)
[21] = molecular target: each individual kinase of the panel (Homo sapiens, UniProt Q13043)
[22] = molecular target: each individual kinase of the panel (Homo sapiens, UniProt Q9HBH9)
[23] = molecular target: each individual kinase of the panel (Homo sapiens, UniProt Q06418)
[24] = molecular target: each individual kinase of the panel (Homo sapiens, UniProt Q9NWZ3)
[25] = molecular target: each individual kinase of the panel (Homo sapiens, UniProt P11362)
Chain of each individual kinase of the panel (Homo sapiens, UniProt P11362) (P11362 22-822 limits assumed): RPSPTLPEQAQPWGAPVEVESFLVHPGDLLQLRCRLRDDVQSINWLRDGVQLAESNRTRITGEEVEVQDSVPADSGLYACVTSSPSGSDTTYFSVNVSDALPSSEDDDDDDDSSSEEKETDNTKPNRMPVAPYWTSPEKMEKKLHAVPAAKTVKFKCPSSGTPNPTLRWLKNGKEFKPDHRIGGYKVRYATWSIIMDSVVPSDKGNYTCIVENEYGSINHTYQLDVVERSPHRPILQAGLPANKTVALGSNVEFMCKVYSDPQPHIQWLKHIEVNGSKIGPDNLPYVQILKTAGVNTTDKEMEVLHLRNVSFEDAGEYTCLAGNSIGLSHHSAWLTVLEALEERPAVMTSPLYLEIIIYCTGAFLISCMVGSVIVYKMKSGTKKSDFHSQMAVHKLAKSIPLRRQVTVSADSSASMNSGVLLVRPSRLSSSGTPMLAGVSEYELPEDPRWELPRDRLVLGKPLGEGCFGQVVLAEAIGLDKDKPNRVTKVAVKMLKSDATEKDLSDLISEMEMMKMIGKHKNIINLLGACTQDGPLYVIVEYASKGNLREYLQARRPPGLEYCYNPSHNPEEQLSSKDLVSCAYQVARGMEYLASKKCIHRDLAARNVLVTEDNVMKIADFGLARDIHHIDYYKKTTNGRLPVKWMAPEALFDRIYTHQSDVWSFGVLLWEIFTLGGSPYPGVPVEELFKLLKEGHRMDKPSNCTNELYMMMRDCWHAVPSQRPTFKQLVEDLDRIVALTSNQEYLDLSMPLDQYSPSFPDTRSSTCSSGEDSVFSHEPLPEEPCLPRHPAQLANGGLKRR

[26] = molecular target: each individual kinase of the panel (Homo sapiens, UniProt P06241)
Chain of each individual kinase of the panel (Homo sapiens, UniProt P06241) (P06241 2-537 limits assumed): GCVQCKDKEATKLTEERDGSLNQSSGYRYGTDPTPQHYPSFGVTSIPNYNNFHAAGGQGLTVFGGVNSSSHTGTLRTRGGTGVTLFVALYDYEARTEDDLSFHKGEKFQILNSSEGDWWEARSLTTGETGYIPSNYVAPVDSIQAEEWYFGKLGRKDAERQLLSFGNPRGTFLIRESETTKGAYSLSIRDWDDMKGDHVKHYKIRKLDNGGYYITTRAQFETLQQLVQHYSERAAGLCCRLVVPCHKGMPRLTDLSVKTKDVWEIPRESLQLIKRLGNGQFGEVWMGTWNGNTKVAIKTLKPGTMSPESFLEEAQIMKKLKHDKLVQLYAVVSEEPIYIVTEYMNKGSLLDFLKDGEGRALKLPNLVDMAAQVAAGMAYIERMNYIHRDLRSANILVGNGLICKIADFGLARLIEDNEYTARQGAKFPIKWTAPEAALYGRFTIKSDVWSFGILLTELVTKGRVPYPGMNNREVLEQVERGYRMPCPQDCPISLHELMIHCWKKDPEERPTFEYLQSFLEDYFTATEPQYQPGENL

[27] = molecular target: each individual kinase of the panel (Homo sapiens, UniProt Q9HCP0)

## C#Cc1cccc(Nc2nc3cc(C(=O)O)ccc3c3cnccc23)c1 [drawing 1137]
[1]
  MAPKAPK5 percentage of activity: 22%
[2]
  SRPK1 percentage of activity: 63%
[3]
  CSK percentage of activity: −9%
[4]
  FLT1 percentage of activity: 75%
[5]
  MELK percentage of activity: 77%
[6]
  MLK1 percentage of activity: 21%
[7]
  CK1 gamma 2 percentage of activity: 35%
[8]
  PLK3 percentage of activity: −1%
[9]
  PRKCA percentage of activity: 9%
[10]
  CDK2/cyclin A percentage of activity: 53%
[11]
  FLT4 percentage of activity: 101%
[12]
  cKit(V560G) percentage of activity: 69%
[13]
  CK1 gamma 3 percentage of activity: 32%
[14]
  RET percentage of activity: 35%
[15]
  FAK percentage of activity: −2%
[16]
  ARK5 percentage of activity: 14%
[17]
  RPS6KA2 percentage of activity: 59%
[18]
  CAMK1 percentage of activity: 1%
[19]
  TAK1 percentage of activity: 6%
[20]
  MAPKAPK2 percentage of activity: −12%
[21]
  MST1 percentage of activity: −3%
[22]
  Mnk2 percentage of activity: −2%
[23]
  TYRO3 percentage of activity: 22%
[24]
  IRAK4 percentage of activity: 4%
[25]
  FGFR1 percentage of activity: 23%
[26]
  FYN percentage of activity: 18%
[27]
  CK1 gamma 1 percentage of activity: 10%
